Test results from patent US20240174744A1, “METHODS OF TREATMENT USING PROTEIN BINDERS TO IRHOM2 EPITOPES” (SCIRHOM GMBH, priority 2021, published 2024).

Test system: PMA-induced release of HB-EGF from PBMCs from healthy donors
Assay: ELISA-based HB-EGF release assay, PBMCs from healthy donors
Assay type: cell-based
Conditions: Homo sapiens, PBMC; recombinant murine antibodies 1 μg/ml; Batimastat 10 μM; PMA 25 ng/ml, 6 hours
Procedure: In the following study, ELISA-based HB-EGF release assays were performed to analyze the inhibitory effects of the antibodies of the present disclosure on PMA-induced release of endogenous HB-EGF from primary human material obtained from healthy donors using peripheral blood mononuclear cells (PBMCs).
In brief, on day 1, Nunc black MaxiSorp® 96-well plates (Thermo Fisher Scientific, USA) were coated overnight with 100 μl per well of mouse anti-human HB-EGF capture antibody (provided as part of the DuoSet ELISA kit) at 4 μg/ml TBS at 4° C. On day 2, the capture antibody solution was removed and MaxiSorp® plates were blocked with 300 μl per well of TBS, 1% BSA at room temperature for 3 hours. […] Using an infinite M1000 (Tecan Group, Switzerland) microplate reader, the fluorescence of each well was collected at an excitation wavelength of 435 nm and an emission wavelength of 555 nm.

SMILES: CNC(=O)[C@H](Cc1ccccc1)NC(=O)[C@H](CC(C)C)[C@H](CSc1cccs1)C(=O)NO [Batimastat]
- inhibition at 10 µM: 94.9%
